System: PxXyl43A
Assay: p-nitrophenol release, absorbance at […] nm
Type: biochemical, Paenibacillus xylaniclasticus
Conditions: pH 7.0, 50 mM potassium phosphate, 54 °C, 1.5 min, 1.8 to 9.0 mM pNPX

- Km: 1200 µM
Compound: O=[N+]([O-])c1ccc(O[C@@H]2OC[C@@H](O)[C@H](O)[C@H]2O)cc1 [pNPX]
